Experiment [1] has as its system Spontaneously hypertensive rats (SHR). The experiment can be described thus: Acute Efficacy in Spontaneously Hypertensive Rats (SHR), telemetry blood pressure. The experiment is classed as in vivo, rat. To be noted: single oral gavage. Put shortly: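 Male SHR fitted with aortic telemetry transmitters and recovered 14 days; conscious blood pressure sampled 30 s every 10 min. Single oral gavage dose (vehicle 10% transcutol/20% Cremophor/70% water); hourly SBP change versus prior-day vehicle baseline, reported as maximum peak decrease.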

The target of experiment [2] is T1, sGC α1/β1 heterodimer (Homo sapiens, UniProt Q02108+Q02153).
T1 construct: expressed in transfected cells
T1 sequence (Q02108 1-690): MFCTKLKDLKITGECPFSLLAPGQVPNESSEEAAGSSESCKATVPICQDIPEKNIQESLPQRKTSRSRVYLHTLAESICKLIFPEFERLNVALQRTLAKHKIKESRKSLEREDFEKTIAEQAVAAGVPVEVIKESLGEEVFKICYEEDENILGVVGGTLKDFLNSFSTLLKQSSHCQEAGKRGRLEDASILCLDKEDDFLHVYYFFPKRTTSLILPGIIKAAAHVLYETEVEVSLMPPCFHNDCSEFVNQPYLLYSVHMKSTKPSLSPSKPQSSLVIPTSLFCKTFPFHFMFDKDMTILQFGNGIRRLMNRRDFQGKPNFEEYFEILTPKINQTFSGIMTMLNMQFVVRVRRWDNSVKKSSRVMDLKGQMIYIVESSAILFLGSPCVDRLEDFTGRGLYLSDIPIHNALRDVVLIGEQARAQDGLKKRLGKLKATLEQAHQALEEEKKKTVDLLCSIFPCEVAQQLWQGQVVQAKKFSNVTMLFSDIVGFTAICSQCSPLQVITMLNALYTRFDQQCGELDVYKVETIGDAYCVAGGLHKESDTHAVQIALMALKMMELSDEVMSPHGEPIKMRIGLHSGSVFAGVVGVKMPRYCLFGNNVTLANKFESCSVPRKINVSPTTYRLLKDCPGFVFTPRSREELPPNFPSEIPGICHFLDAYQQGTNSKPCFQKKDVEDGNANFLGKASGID
T1 sequence (Q02153 1-619): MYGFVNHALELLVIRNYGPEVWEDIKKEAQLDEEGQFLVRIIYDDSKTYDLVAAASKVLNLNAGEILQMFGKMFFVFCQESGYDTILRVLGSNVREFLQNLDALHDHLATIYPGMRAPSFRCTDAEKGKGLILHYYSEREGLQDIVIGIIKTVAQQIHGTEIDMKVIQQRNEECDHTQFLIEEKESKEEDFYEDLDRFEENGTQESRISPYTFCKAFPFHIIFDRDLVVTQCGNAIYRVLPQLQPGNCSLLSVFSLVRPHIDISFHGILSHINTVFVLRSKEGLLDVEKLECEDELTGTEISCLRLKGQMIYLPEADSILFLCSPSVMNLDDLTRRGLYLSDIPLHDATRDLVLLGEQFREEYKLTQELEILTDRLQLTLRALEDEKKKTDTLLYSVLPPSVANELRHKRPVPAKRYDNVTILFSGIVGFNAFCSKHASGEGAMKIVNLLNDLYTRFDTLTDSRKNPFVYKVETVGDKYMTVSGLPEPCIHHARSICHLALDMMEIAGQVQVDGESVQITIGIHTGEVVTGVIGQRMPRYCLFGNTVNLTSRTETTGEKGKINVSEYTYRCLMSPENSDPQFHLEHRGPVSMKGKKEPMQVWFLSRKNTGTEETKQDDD
As to the kind of experiment: Cell-Based sGC Functional Assay (CASA Assay), cGMP generation in CHO-K1/sGC cells.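 Further: reference Compound A is a published heme-dependent sGC activator.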 Particulars: maximum cGMP production of Compound A set to 100% activation, read-out: % Act. (percent activation relative to Compound A). Put shortly:
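Intracellular cGMP quantified by HTRF competition after 1 h, 37 °C compound exposure, with or without 1 μM DETA-NO, in stable CHO-K1/sGC α1/β1 cells (4×10^5/mL; buffer with 0.5 mM IBMX, 5 mM MgCl2, 10 mM HEPES, 0.05% BSA; 2.5% DMSO). Activation normalized to reference Compound A maximum; 4P fit.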

Turning to `C[C@@]1(c2ccc(F)cc2)C(=O)Nc2nc(-c3cn4ncnc4c(CCC(F)(F)C(F)(F)F)n3)nc(O)c21` [Example 119A, (S)-5-(4-fluorophenyl)-4-hydroxy-5-methyl-2-(8-(3,3,4,4,4-pentafluorobutyl)-[1,2,4]triazolo[1,5-a]pyrazin-6-yl)-5,7-dihydro-6H-pyrrolo[2,3-d]pyrimidin-6-one], in experiment [1] (P.O. 1 mpk), the “Maximum peak decrease of systolic blood pressure (SBP) in SHR, Cat.” value (“Maximum peak decrease” below) is “B (Category B=SBP in SHRs 20-40 mmHg)”. The Emax in experiment [2] was 124%.
For `CC1(c2ccc(Cl)cn2)C(=O)Nc2nc(-c3cn4ncnc4c(CCC(F)(F)C(F)(F)F)n3)nc(O)c21` (stereo not shown) [Example 120A, 5-(5-chloropyridin-2-yl)-4-hydroxy-5-methyl-2-(8-(3,3,4,4,4-pentafluorobutyl)-[1,2,4]triazolo[1,5-a]pyrazin-6-yl)-5H-pyrrolo[2,3-d]pyrimidin-6(7H)-one] the same measures were “B (Category B=SBP in SHRs 20-40 mmHg)” and 107%.
For `CC1(c2ccc(Cl)c(F)c2)C(=O)Nc2nc(-c3cn4ncnc4c(CCC(F)(F)C(F)(F)F)n3)nc(O)c21` (stereo not shown) [Example 121B, 5-(4-chloro-3-fluorophenyl)-4-hydroxy-5-methyl-2-(8-(3,3,4,4,4-pentafluorobutyl)-[1,2,4]triazolo[1,5-a]pyrazin-6-yl)-5H-pyrrolo[2,3-d]pyrimidin-6(7H)-one] the same measures were “B (Category B=SBP in SHRs 20-40 mmHg)” and 222%.
With `CC1(c2ccc(F)cn2)C(=O)Nc2nc(-c3cn4ncnc4c(CCC(F)(F)C(F)(F)F)n3)nc(O)c21` (stereo not shown) [Example 122B, 5-(5-fluoropyridin-2-yl)-4-hydroxy-5-methyl-2-(8-(3,3,4,4,4-pentafluorobutyl)-[1,2,4]triazolo[1,5-a]pyrazin-6-yl)-5H-pyrrolo[2,3-d]pyrimidin-6(7H)-one], the “Maximum peak decrease” value in experiment [1] (P.O. 1 mpk) is “B (Category B=SBP in SHRs 20-40 mmHg)”. Moreover, in experiment [2], the Emax is 100%.
Turning to `CC1(c2cncc(F)c2)C(=O)Nc2nc(-c3cn4ncnc4c(CCC(F)(F)C(F)(F)F)n3)nc(O)c21` (stereo not shown) [Example 125A, 5-(5-fluoropyridin-3-yl)-4-hydroxy-5-methyl-2-(8-(3,3,4,4,4-pentafluorobutyl)-[1,2,4]triazolo[1,5-a]pyrazin-6-yl)-5H-pyrrolo[2,3-d]pyrimidin-6(7H)-one], the “Maximum peak decrease” value in experiment [1] (P.O. 3 mpk) is listed as “A (Category A=SBP in SHRs <20 mmHg)”. Further, in experiment [2], the Emax was 87%.
As to `Cc1nc2c(CCC(F)(F)C(F)(F)F)nc(-c3nc(O)c4c(n3)NC(=O)C4(C)c3ccc(Cl)c(F)c3)cn2n1` (stereo not shown) [Example 132B, 5-(4-chloro-3-fluorophenyl)-4-hydroxy-5-methyl-2-(2-methyl-8-(3,3,4,4,4-pentafluorobutyl)-[1,2,4]triazolo[1,5-a]pyrazin-6-yl)-5H-pyrrolo[2,3-d]pyrimidin-6(7H)-one], the “Maximum peak decrease” value in experiment [1] (P.O. 1 mpk) is “A (Category A=SBP in SHRs <20 mmHg)”. Further, in experiment [2], the Emax was 119%.
Consider `CC1(c2ccc(Cl)cn2)C(=O)Nc2nc(-c3cn4ncnc4c(CCCC(F)(F)F)n3)nc(O)c21` (stereo not shown) [Example 134A, 5-(5-chloropyridin-2-yl)-4-hydroxy-5-methyl-2-(8-(4,4,4-trifluorobutyl)-[1,2,4]triazolo[1,5-a]pyrazin-6-yl)-5H-pyrrolo[2,3-d]pyrimidin-6(7H)-one], for which the “Maximum peak decrease” value in experiment [1] (P.O. 1 mpk) is on record as “B (Category B=SBP in SHRs 20-40 mmHg)”. The Emax in experiment [2] was 134%.
With `C[C@@]1(c2ccc(F)cc2)C(=O)Nc2nc(-c3cn4ncnc4c(CCCC(F)(F)F)n3)nc(O)c21` [Example 135A, 5-(4-fluorophenyl)-4-hydroxy-5-methyl-2-(8-(4,4,4-trifluorobutyl)-[1,2,4]triazolo[1,5-a]pyrazin-6-yl)-5,7-dihydro-6H-pyrrolo[2,3-d]pyrimidin-6-one], the “Maximum peak decrease” value in experiment [1] (P.O. 1 mpk) is given as “B (Category B=SBP in SHRs 20-40 mmHg)”. Besides, in experiment [2], the Emax came to 108%.
